Reference: PubChem BioAssay (NCI)
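Protocol summary: plate cells (96-well), add compound at 5 concentrations, incubate 48 h, interpolate endpoints linearly. TGI marks complete inhibition of growth.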

Columns and labels:
Test in all cases: NCI anticancer screen, dose series, 48 h
COLO 205 colon = tested on: COLO 205 colon
K-562 leukemia = tested on: K-562 leukemia
ACHN renal = tested on: ACHN renal
CCRF-CEM leukemia = tested on: CCRF-CEM leukemia
UACC-257 melanoma = tested on: UACC-257 melanoma
M14 melanoma = tested on: M14 melanoma
LXFL 529 NSCLC = tested on: LXFL 529 NSCLC
SNB-19 CNS = tested on: SNB-19 CNS
EKVX NSCLC = tested on: EKVX NSCLC
RPMI-8226 leukemia = tested on: RPMI-8226 leukemia
UO-31 renal = tested on: UO-31 renal
SN12C renal = tested on: SN12C renal
SF-295 CNS = tested on: SF-295 CNS
SK-MEL-28 melanoma = tested on: SK-MEL-28 melanoma
SF-539 CNS = tested on: SF-539 CNS
MCF7 breast = tested on: MCF7 breast
M19-MEL melanoma = tested on: M19-MEL melanoma
NCI-H23 lung = tested on: NCI-H23 lung
DU-145 prostate = tested on: DU-145 prostate
SK-MEL-2 melanoma = tested on: SK-MEL-2 melanoma
RXF 393 renal = tested on: RXF 393 renal
SNB-78 CNS = tested on: SNB-78 CNS
HL-60(TB) leukemia = tested on: HL-60(TB) leukemia
T-47D breast = tested on: T-47D breast
TK-10 renal = tested on: TK-10 renal
OVCAR-5 ovarian = tested on: OVCAR-5 ovarian
DMS 114 small cell lung = tested on: DMS 114 small cell lung
MDA-MB-435 = tested on: MDA-MB-435
A549 NSCLC = tested on: A549 NSCLC
HCC-2998 colon = tested on: HCC-2998 colon
NCI-H226 lung = tested on: NCI-H226 lung
SF-268 CNS = tested on: SF-268 CNS
MDA-MB-231 breast = tested on: MDA-MB-231 breast
DLD-1 colon = tested on: DLD-1 colon
HT29 colon = tested on: HT29 colon
LOX IMVI melanoma = tested on: LOX IMVI melanoma
SR leukemia = tested on: SR leukemia
HCT-15 colon = tested on: HCT-15 colon
NCI-H460 lung = tested on: NCI-H460 lung
OVCAR-8 ovarian = tested on: OVCAR-8 ovarian
SK-OV-3 ovarian = tested on: SK-OV-3 ovarian
MOLT-4 leukemia = tested on: MOLT-4 leukemia
786-0 renal = tested on: 786-0 renal
OVCAR-3 ovarian = tested on: OVCAR-3 ovarian
KM12 colon = tested on: KM12 colon
HOP-18 NSCLC = tested on: HOP-18 NSCLC
SK-MEL-5 melanoma = tested on: SK-MEL-5 melanoma
CAKI-1 renal = tested on: CAKI-1 renal
KM20L2 colon = tested on: KM20L2 colon
U251 CNS = tested on: U251 CNS
OVCAR-4 ovarian = tested on: OVCAR-4 ovarian
XF 498 CNS = tested on: XF 498 CNS
HOP-92 NSCLC = tested on: HOP-92 NSCLC
UACC-62 melanoma = tested on: UACC-62 melanoma
PC-3 prostate = tested on: PC-3 prostate
SNB-75 CNS = tested on: SNB-75 CNS
HOP-62 NSCLC = tested on: HOP-62 NSCLC
NCI-H522 lung = tested on: NCI-H522 lung
MALME-3M melanoma = tested on: MALME-3M melanoma
SW-620 colon = tested on: SW-620 colon
A498 renal = tested on: A498 renal
IGROV1 ovarian = tested on: IGROV1 ovarian
HCT-116 colon = tested on: HCT-116 colon

Cc1cc(NC(=O)NC(=O)c2ccccc2N)ccc1Oc1ncc(Br)cn1 showed a TGI (COLO 205 colon) of 0.108 µM, a TGI (K-562 leukemia) greater than 100 µM and a TGI (ACHN renal) greater than 100 µM. For the same molecule, the TGI (CCRF-CEM leukemia) was greater than 100 µM, the TGI (UACC-257 melanoma) was 54.2 µM and the TGI (M14 melanoma) was greater than 31.2 µM. The TGI (LXFL 529 NSCLC) was greater than 57.2 µM, the TGI (SNB-19 CNS) was 38.5 µM and the TGI (EKVX NSCLC) was greater than 84.3 µM. It also gave a TGI (RPMI-8226 leukemia) greater than 100 µM, a TGI (UO-31 renal) greater than 59.6 µM and a TGI (SN12C renal) greater than 46.4 µM. The TGI (SF-295 CNS) was 17 µM, the TGI (SK-MEL-28 melanoma) was greater than 100 µM and the TGI (SF-539 CNS) was 0.287 µM. For the same molecule, the TGI (MCF7 breast) was 18.6 µM, the TGI (M19-MEL melanoma) was greater than 100 µM and the TGI (NCI-H23 lung) was 0.575 µM. The TGI (DU-145 prostate) was greater than 4.64 µM, the TGI (SK-MEL-2 melanoma) was 0.481 µM and the TGI (RXF 393 renal) was 1.62 µM. It also gave a TGI (SNB-78 CNS) greater than 100 µM, a TGI (HL-60(TB) leukemia) of 1.39 µM and a TGI (T-47D breast) greater than 24.4 µM. It also gave a TGI (TK-10 renal) of 35.1 µM, a TGI (OVCAR-5 ovarian) greater than 100 µM and a TGI (DMS 114 small cell lung) of 0.0209 µM. It also gave a TGI (MDA-MB-435) of less than 0.0108 µM, a TGI (A549 NSCLC) of 20.7 µM and a TGI (HCC-2998 colon) of 7.77 µM. For the same molecule, the TGI (NCI-H226 lung) was 6.64 µM, the TGI (SF-268 CNS) was greater than 67.3 µM and the TGI (MDA-MB-231 breast) was 7.93 µM. The TGI (DLD-1 colon) was greater than 47.9 µM, the TGI (HT29 colon) was 0.258 µM and the TGI (LOX IMVI melanoma) was greater than 67.1 µM. The TGI (SR leukemia) was greater than 15.8 µM, the TGI (HCT-15 colon) was 8.31 µM and the TGI (NCI-H460 lung) was 14.3 µM. The TGI (OVCAR-8 ovarian) was greater than 46.1 µM, the TGI (SK-OV-3 ovarian) was 3.02 µM and the TGI (MOLT-4 leukemia) was greater than 30.3 µM. The TGI (786-0 renal) was 41.2 µM, the TGI (OVCAR-3 ovarian) was less than 0.0173 µM and the TGI (KM12 colon) was 54.9 µM. For the same molecule, the TGI (HOP-18 NSCLC) was greater than 78 µM, the TGI (SK-MEL-5 melanoma) was 16.2 µM and the TGI (CAKI-1 renal) was 63.3 µM. It also gave a TGI (KM20L2 colon) of 0.442 µM, a TGI (U251 CNS) of 7.25 µM and a TGI (OVCAR-4 ovarian) greater than 75.9 µM. It also gave a TGI (XF 498 CNS) of 67.6 µM, a TGI (HOP-92 NSCLC) of 53.8 µM and a TGI (UACC-62 melanoma) of 1.75 µM. It also gave a TGI (PC-3 prostate) of 6.15 µM, a TGI (SNB-75 CNS) of 37.7 µM and a TGI (HOP-62 NSCLC) of 31.2 µM. The TGI (NCI-H522 lung) was 0.0555 µM, the TGI (MALME-3M melanoma) was greater than 69.9 µM and the TGI (SW-620 colon) was greater than 100 µM. It also gave a TGI (A498 renal) of 0.751 µM, a TGI (IGROV1 ovarian) of 24 µM and a TGI (HCT-116 colon) of 8.15 µM.
